Laboratory results taken from patent US12661410B2, “Compounds for targeted degradation of RET” (C4 Therapeutics, Inc., priority 2020, dated 2026).
Changes are numbered by the printed parent chain. Read-outs that look alike come from different tables or passages of the source.

Tests used:
[1] = biological target: T1, RET(KD: 658-1114 G810R) (Homo sapiens, UniProt P07949, G810R); assay: HiBiT-Degradation, RET G810R degradation assay (Nano-Glo HiBiT Lytic), 293T.165 cells; format: cell-based; conditions: for Emax / DC50: 6.0 hours
T1 construct: 658-1114; expressed in transfected cells; host or cells: 293T.165 (293T cells, generated in-house)
T1 sequence (P07949 658-1114 G810R): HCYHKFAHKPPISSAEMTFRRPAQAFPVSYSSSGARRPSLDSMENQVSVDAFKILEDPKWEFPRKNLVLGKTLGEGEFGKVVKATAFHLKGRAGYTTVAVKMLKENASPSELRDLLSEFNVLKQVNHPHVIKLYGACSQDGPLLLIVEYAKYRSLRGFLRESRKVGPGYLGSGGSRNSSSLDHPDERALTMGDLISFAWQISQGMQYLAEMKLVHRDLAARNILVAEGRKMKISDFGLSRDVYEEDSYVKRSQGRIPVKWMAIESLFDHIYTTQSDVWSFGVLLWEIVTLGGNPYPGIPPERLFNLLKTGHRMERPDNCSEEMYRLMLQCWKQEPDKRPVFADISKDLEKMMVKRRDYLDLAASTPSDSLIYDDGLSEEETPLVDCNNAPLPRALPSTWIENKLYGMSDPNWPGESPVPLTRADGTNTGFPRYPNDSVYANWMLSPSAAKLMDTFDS
Description: (§1) Dulbecco's modified Eagle medium (DMEM) no-phenol red media and fetal bovine serum (FBS) were purchased from Gibco (Grand Island, NY, USA). Cell lines ectopically expressing wild-type or G810R RET kinase domain fused with a HiBiT tag were generated in-house (293T. 144 and 293T. 165, respectively). Cell culture flasks and 384-well microplates were acquired from VWR (Radnor, PA, USA). The Nano-Glo® HiBiT Lytic Assay System was purchased from Promega (Madison, WI, USA).
(§2) RET wild-type (WT) and G810R degradation were assessed using the Nano-Glo® HiBiT Lytic assay (Promega, Medison, WI, USA). To determine the effect of degraders on protein levels, cells were plated in 384-well plates and treated with compounds of interest in duplicates for 6 hours using an 11-point half-log dilution series, with the highest dose set at 10 μM. Cell lysis and addition of the Nano-Glo® HiBiT Lytic Assay reagents was then performed. Luminescence signal was measured using an EnVision™ Multimode plate reader (Perkin Elmer, Santa Clara, CA, USA). The half-maximal degradation concentration (DC50) and % remaining protein (Emax) was then derived from the dose-response curves.

[2] = biological target: T2, RET (658-1114) (Homo sapiens, UniProt P07949); assay: HiBiT-Degradation, RET wild-type degradation assay (Nano-Glo HiBiT Lytic), 293T.144 cells; format: cell-based; conditions: for DC50 / Emax: 6.0 hours
T2 construct: 658-1114; expressed in transfected cells; host or cells: 293T.144 (293T cells, generated in-house)
T2 sequence (P07949 658-1114): T1 sequence (P07949 658-1114 G810R) with R153G
Description: as §1, §2

[3] = % remaining protein, read-out: 293T.165 RET(KD: 658-1114 G810R) 6.0 hours (Emax)
[4] = half-maximal degradation concentration, read-out: 293T.165 RET(KD: 658-1114 G810R) 6.0 hours (DC50)
[5] = RET G810R, read-out: HiBiT-Degradation 293T.165 RET(KD: 658-1114 G810R) 6.0 hours (DC50)
[6] = RET G810R, read-out: HiBiT-Degradation 293T.165 RET(KD: 658-1114 G810R) 6.0 hours (Emax)
[7] = RET wild-type, read-out: HiBiT-Degradation 293T.144 RET (658-1114) 6.0 hours (DC50)
[8] = RET wild-type, read-out: HiBiT-Degradation 293T.144 RET (658-1114) 6.0 hours (Emax)
[9] = % remaining protein, read-out: 293T.144 RET (658-1114) 6.0 hours (Emax)
[10] = half-maximal degradation concentration, read-out: 293T.144 RET (658-1114) 6.0 hours (DC50)
[11] = HiBiT-Degradation, read-out: 293T.165 RET(KD: 658-1114 G810R) 6.0 hours (DC50)
[12] = HiBiT-Degradation, read-out: 293T.144 RET (658-1114) 6.0 hours (DC50)
[13] = HiBiT-Degradation, read-out: 293T.144 RET (658-1114) 6.0 hours (Emax)

| Emax [1, 3] [%] | DC50 [1, 4] [nM] | HiBiT-Degradation 293T.165 RET(KD: 658-1114 G810R) 6.0 hours (IP) [nM] ([1]; RET G810R) | DC50 [1, 5] [nM] | Emax [1, 6] [%] | HiBiT-Degradation 293T.144 RET (658-1114) 6.0 hours (IP) [nM] ([2]; RET wild-type) | DC50 [2, 7] [nM] | Emax [2, 8] [%] | 293T.165 RET(KD: 658-1114 G810R) 6.0 hours (IP) [nM] [1] | 293T.144 RET (658-1114) 6.0 hours (IP) [nM] [2] | Emax [2, 9] [%] | DC50 [2, 10] [nM] | 293T.165 RET(KD: 658-1114 G810R) 6.0 hours (Emax) ([1]; HiBiT-Degradation) | 293T.165 RET(KD: 658-1114 G810R) 6.0 hours (IP) [nM] ([1]; HiBiT-Degradation) | DC50 [1, 11] [nM] | 293T.144 RET (658-1114) 6.0 hours (IP) [nM] ([2]; HiBiT-Degradation) | DC50 [2, 12] [nM] | Emax [2, 13] [%] | Compound |
| --- | --- | --- | --- | --- | --- | --- | --- | --- | --- | --- | --- | --- | --- | --- | --- | --- | --- | --- |
| < 30 | < 50 | – | – | – | – | – | – | ++++ (<50 nM = ++++) | ++++ (<50 nM = ++++) | < 30 | < 50 | – | – | – | – | – | – | Cc1ccnc(C2CCN(c3ccc(-c4nc(-c5cnn(C6CCN(C(=O)CC7(O)CCN(c8ccc(NC9CCC(=O)NC9=O)cc8F)CC7)CC6)c5)cn5ncc(C#N)c45)cn3)CC2)n1 (centres unmarked) [Compound 115, 6-[1-[1-[2-[1-[4-[(2,6-dioxo-3-piperidyl)amino]-2-fluoro-phenyl]-4-hydroxy-4-piperidyl]acetyl]-4-piperidyl]pyrazol-4-yl]-4-[6-[4-(4-methylpyrimidin-2-yl)-1-piperidyl]-3-pyridyl]pyrazolo[1,5-a]pyrazine-3-carbonitrile] |
| < 50 | < 100 | – | – | – | – | – | – | ++++ (<50 nM = ++++) | ++++ (<50 nM = ++++) | < 30 | < 50 | – | – | – | – | – | – | N#Cc1cnn2cc(-c3ccc(C4CCN(C(=O)CC5(O)CCN(c6ccc(NC7CCC(=O)NC7=O)cc6F)CC5)CC4)cc3)nc(-c3ccc(N4CCN(C(=O)c5ccon5)CC4)nc3)c12 (centres unmarked) [Compound 175, 6-[4-[1-[2-[1-[4-[(2,6-dioxo-3-piperidyl)amino]-2-fluoro-phenyl]-4-hydroxy-4-piperidyl]acetyl]-4-piperidyl]phenyl]-4-[6-[4-(isoxazole-3-carbonyl)piperazin-1-yl]-3-pyridyl]pyrazolo[1,5-a]pyrazine-3-carbonitrile] |
| < 50 | < 50 | – | – | – | – | – | – | ++++ (<50 nM = ++++) | ++++ (<50 nM = ++++) | < 30 | < 50 | – | – | – | – | – | – | CCC1(c2ncccn2)CCN(c2ccc(-c3nc(-c4cnn(C5CCN(C(=O)CC6(O)CCN(c7ccc(NC8CCC(=O)NC8=O)cc7F)CC6)CC5)c4)cn4ncc(C#N)c34)cn2)CC1 (centres unmarked) [Compound 105, 6-[1-[1-[2-[1-[4-[(2,6-dioxo-3-piperidyl)amino]-2-fluoro-phenyl]-4-hydroxy-4-piperidyl]acetyl]-4-piperidyl]pyrazol-4-yl]-4-[6-(4-ethyl-4-pyrimidin-2-yl-1-piperidyl)-3-pyridyl]pyrazolo[1,5-a]pyrazine-3-carbonitrile] |
| < 30 | < 50 | – | – | – | – | – | – | ++++ (<50 nM = ++++) | ++++ (<50 nM = ++++) | < 30 | < 50 | – | – | – | – | – | – | CCC1(C(=O)NC(C)C)CCN(c2ccc(-c3nc(-c4cnn(C5CCN(CC6(O)CCN(c7ccc(NC8CCC(=O)NC8=O)cc7F)CC6)CC5)c4)cn4ncc(C#N)c34)cn2)CC1 (centres unmarked) [Compound 118, 1-(5-(3-cyano-6-(1-(1-((1-(4-((2,6-dioxopiperidin-3-yl)amino)-2-fluorophenyl)-4-hydroxypiperidin-4-yl)methyl)piperidin-4-yl)-1H-pyrazol-4-yl)pyrazolo[1,5-a]pyrazin-4-yl)pyridin-2-yl)-4-ethyl-N-isopropylpiperidine-4-carboxamide] |

Further lines, the molecule ahead of its results:

| Compound | Emax [1, 3] [%] | DC50 [1, 4] [nM] | HiBiT-Degradation 293T.165 RET(KD: 658-1114 G810R) 6.0 hours (IP) [nM] ([1]; RET G810R) | DC50 [1, 5] [nM] | Emax [1, 6] [%] | HiBiT-Degradation 293T.144 RET (658-1114) 6.0 hours (IP) [nM] ([2]; RET wild-type) | DC50 [2, 7] [nM] | Emax [2, 8] [%] | 293T.165 RET(KD: 658-1114 G810R) 6.0 hours (IP) [nM] [1] | 293T.144 RET (658-1114) 6.0 hours (IP) [nM] [2] | Emax [2, 9] [%] | DC50 [2, 10] [nM] | 293T.165 RET(KD: 658-1114 G810R) 6.0 hours (Emax) ([1]; HiBiT-Degradation) | 293T.165 RET(KD: 658-1114 G810R) 6.0 hours (IP) [nM] ([1]; HiBiT-Degradation) | DC50 [1, 11] [nM] | 293T.144 RET (658-1114) 6.0 hours (IP) [nM] ([2]; HiBiT-Degradation) | DC50 [2, 12] [nM] | Emax [2, 13] [%] |
| --- | --- | --- | --- | --- | --- | --- | --- | --- | --- | --- | --- | --- | --- | --- | --- | --- | --- | --- |
| CCC1(C(=O)NC(C)C)CCN(c2ccc(-c3nc(-c4cnn(CC5CCN(C(=O)CC6(O)CCN(c7ccc(NC8CCC(=O)NC8=O)cc7F)CC6)CC5)c4)cn4ncc(C#N)c34)cn2)CC1 (centres unmarked) [Compound 84, 1-[5-[3-cyano-6-[1-[[1-[2-[1-[4-[(2,6-dioxo-3-piperidyl)amino]-2-fluoro-phenyl]-4-hydroxy-4-piperidyl]acetyl]-4-piperidyl]methyl]pyrazol-4-yl]pyrazolo[1,5-a]pyrazin-4-yl]-2-pyridyl]-4-ethyl-N-isopropyl-piperidine-4-carboxamide] | < 30 | < 100 | ++++ (< 50 nM = ++++) | < 100 | < 30 | ++++ (< 50 nM = ++++) | < 50 | < 30 | – | – | – | – | – | – | – | – | – | – |
| COCC1(Cc2ccccn2)CCN(c2ccc(-c3nc(-c4cnn(C5CCN(C(=O)CN6CCC(c7ccc(NC8CCC(=O)NC8=O)cc7F)CC6)CC5)c4)cn4ncc(C#N)c34)cn2)CC1 (centres unmarked) [Compound 78, 6-[1-[1-[2-[4-[4-[(2,6-dioxo-3-piperidyl)amino]-2-fluoro-phenyl]-1-piperidyl]acetyl]-4-piperidyl]pyrazol-4-yl]-4-[6-[4-(methoxymethyl)-4-(2-pyridylmethyl)-1-piperidyl]-3-pyridyl]pyrazolo[1,5-a]pyrazine-3-carbonitrile] | < 30 | < 100 | ++++ (< 50 nM = ++++) | < 100 | < 30 | ++++ (< 50 nM = ++++) | < 50 | < 30 | – | – | – | – | – | – | – | – | – | – |
| CCC1(C(=O)NC(C)C)CCN(c2ccc(-c3nc(-c4cnn(C5CCN(C(=O)CC6(O)CCN(c7ccc(NC8CCC(=O)NC8=O)cc7F)CC6)CC5)c4)cn4ncc(C#N)c34)cn2)CC1 (centres unmarked) [Compound 30, 1-(5-(3-Cyano-6-(1-(1-(2-(1-(4-((2,6-dioxopiperidin-3-yl)amino)-2-fluorophenyl)-4-hydroxypiperidin-4-yl)acetyl)piperidin-4-yl)-1H-pyrazol-4-yl)pyrazolo[1,5-a]pyrazin-4-yl)pyridin-2-yl)-4-ethyl-N-isopropylpiperidine-4-carboxamide] | < 50 | < 50 | – | – | – | – | – | – | – | – | – | – | +++ (<50% = +++) | ++++ (< 50 nM = ++++) | < 50 | ++++ (< 50 nM = ++++) | < 50 | < 30 |
| CN(C)c1ccc(-c2cc(-c3cnn([C@H]4CC[C@@H](CCN5CCC(c6ccc(NC7CCC(=O)NC7=O)cc6)CC5)CC4)c3)cn3ncc(C#N)c23)cn1 (some centres unmarked) [Compound 43, 4-[6-(dimethylamino)-3-pyridyl]-6-[1-[(1s,4s)-4-[2-[4-[4-[(2,6-dioxo-3-piperidyl)amino]phenyl]-1-piperidyl]ethyl]cyclohexyl]pyrazol-4-yl]pyrazolo[1,5-a]pyridine-3-carbonitrile] | < 50 | < 100 | – | – | – | – | – | – | – | – | – | – | +++ (<50% = +++) | ++++ (< 50 nM = ++++) | < 100 | ++++ (< 50 nM = ++++) | < 50 | < 30 |
